# Data taken from ChEMBL document CHEMBL4308834, “Novel Allosteric Activators for Ferroptosis Regulator Glutathione Peroxidase 4” (J Med Chem, 2018).
# Assays:
# [1] = target: T1, Leukotriene A-4 hydrolase (Homo sapiens) (UniProt P09960); experiment: Inhibition of LTA4H (unknown origin) at 500 uM preincubated for 15 mins followed by LTA4 substrate addition and measured after 10 mins by ELISA relative to control
# T1 sequence (whole entry): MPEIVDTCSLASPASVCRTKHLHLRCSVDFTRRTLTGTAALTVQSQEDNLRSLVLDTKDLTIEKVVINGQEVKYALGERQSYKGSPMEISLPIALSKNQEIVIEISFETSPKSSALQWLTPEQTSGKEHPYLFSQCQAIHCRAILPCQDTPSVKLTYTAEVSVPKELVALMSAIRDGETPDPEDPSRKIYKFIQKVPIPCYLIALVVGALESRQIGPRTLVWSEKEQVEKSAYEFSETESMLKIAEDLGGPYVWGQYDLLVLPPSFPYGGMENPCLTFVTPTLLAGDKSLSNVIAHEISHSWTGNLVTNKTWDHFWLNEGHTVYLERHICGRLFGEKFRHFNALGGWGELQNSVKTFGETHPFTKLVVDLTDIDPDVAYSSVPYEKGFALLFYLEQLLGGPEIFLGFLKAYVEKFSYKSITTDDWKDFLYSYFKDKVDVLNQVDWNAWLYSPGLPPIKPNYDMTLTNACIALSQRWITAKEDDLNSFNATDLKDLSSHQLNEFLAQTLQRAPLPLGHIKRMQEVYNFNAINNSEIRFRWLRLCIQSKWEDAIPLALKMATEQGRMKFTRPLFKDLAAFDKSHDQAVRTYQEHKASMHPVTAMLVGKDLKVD
# [2] = organism: Homo sapiens; experiment: Activation of recombinant human GPX4 D23A/U46C double mutant expressed in Escherichia coli M15 assessed as increase in oxidized glutathione-mediated oxidation of NADPH to NADP+ using tert-butyl hydroperoxide as substrate preincubated for 5 mins followed by substrate addition measured for 6 mins by glutathione reductase enzyme coupled fluorescence assay relative to GPX4 U46C mutant control
smiles,measurement,setting,value
NS(=O)(=O)c1ccc(NC(S)=NCc2ccc(Cl)cc2)cc1,inhibition,[1],17%
same,EC150,[2],372 µM
